{
  "source": "patent US11285130B2",
  "about": "“Treatment of mitochondrial diseases” (Khondrion IP B.V., priority 2017, dated 2022)",
  "key": {"[1]": {"experiment": "Phospholipidosis assessment in MAD study (urinary di-22:6-BMP, electron microscopy of peripheral leucocytes)", "method": "Therefore, the presence of phospholipidosis was determined by the concentration of di-docosahexaenoyl (22:6)-bis(monoacylglycerol) phosphate (di-22:6-BMP) in a midstream urine sample and by electron microscopy of peripheral leucocytes at Day 1 and 7 in the MAD study (Pospischil A. et al, Exp. Toxicol Pathol 2010, 62:567-571)."}, "[2]": {"details": "male, human, in vivo, 7 days"}},
  "data": [
    {"smiles": "Cc1c(C)c2c(c(C)c1O)CC[C@@](C)(C(=O)N[C@@H]1CCCNC1)O2.Cl", "note": "[KH176, (S)-6-hydroxy-2,5,7,8-tetramethyl-N-((R)-piperidin-3-yl)chroman-2-carboxamide hydrochloride]", "values": [
      {"measurement": "di-22:6-BMP in urine, change from Day 1 to Day 7", "setting": "[1]; MAD group III (100 mg BID)", "result": "0.74-2.50 ng/mg creatinine"},
      {"measurement": "di-22:6-BMP in urine, change from Day 1 to Day 7", "setting": "[1]; MAD group IV (200 mg BID)", "result": "−1.44-1.32 ng/mg creatinine"},
      {"measurement": "di-22:6-BMP in urine, change from Day 1 to Day 7", "setting": "[1]; MAD group V (400 mg BID)", "result": "−0.69-1.46 ng/mg creatinine"},
      {"measurement": "prevalence of phospholipidosis in granulocytes or monocytes by electron microscopy", "setting": "[1]; in vivo", "result": "No increased prevalence"},
      {"measurement": "AEs rated mild in severity", "setting": "[2]", "result": 27},
      {"measurement": "moderate AEs", "setting": "[2]", "result": 2},
      {"measurement": "subjects reporting AEs", "setting": "[2]", "result": 10, "unit": "subjects"}
    ]}
  ]
}
